Test results as given in patent publication US20110172147A1, “NEUROPEPTIDE-2 RECEPTOR (Y-2R) AGONISTS” (priority 2009, published 2011).

How the values were obtained:
Type in all cases: cell-based
Y1R = target: T1, Y1R (Homo sapiens, UniProt P25929); test: CaFlux Assay (FLIPR), Y1R
T1 sequence (P25929 1-384): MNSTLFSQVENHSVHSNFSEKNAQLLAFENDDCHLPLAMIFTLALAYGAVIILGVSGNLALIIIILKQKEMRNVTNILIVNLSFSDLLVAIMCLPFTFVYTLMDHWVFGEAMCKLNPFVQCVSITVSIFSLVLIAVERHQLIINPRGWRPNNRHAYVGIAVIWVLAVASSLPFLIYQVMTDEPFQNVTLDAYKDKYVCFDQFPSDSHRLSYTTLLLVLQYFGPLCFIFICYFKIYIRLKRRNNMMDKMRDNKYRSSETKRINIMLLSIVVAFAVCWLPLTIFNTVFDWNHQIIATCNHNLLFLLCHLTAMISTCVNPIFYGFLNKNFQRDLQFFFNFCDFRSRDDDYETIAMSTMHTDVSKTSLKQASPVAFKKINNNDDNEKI

Y4R = Y4R (Homo sapiens, UniProt P50391); test: CaFlux Assay (FLIPR), Y4R
Y5R = target: T2, Y5R (Homo sapiens, UniProt Q15761); test: CaFlux Assay (FLIPR), Y5R
T2 sequence (Q15761 1-445): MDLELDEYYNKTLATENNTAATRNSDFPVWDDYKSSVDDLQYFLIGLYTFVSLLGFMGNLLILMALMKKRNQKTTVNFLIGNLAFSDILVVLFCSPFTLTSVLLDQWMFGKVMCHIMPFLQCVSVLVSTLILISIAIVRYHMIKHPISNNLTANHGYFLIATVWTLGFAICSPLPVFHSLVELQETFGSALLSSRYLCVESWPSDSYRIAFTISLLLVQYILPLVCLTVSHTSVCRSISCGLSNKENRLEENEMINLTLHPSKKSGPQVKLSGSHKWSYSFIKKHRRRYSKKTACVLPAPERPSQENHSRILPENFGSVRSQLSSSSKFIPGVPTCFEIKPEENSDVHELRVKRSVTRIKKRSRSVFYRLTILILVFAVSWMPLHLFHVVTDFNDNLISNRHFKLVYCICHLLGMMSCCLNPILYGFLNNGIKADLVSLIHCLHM

hNPY2R [1] = target: T3, hNPY2R (Homo sapiens, UniProt P49146); test: cAMP Agonist Assay, HEK293/hNPY2R; set-up: expressed in transfected cells; host or cells: HEK293/hNPY2R (G418 selection)
T3 sequence (P49146 1-381): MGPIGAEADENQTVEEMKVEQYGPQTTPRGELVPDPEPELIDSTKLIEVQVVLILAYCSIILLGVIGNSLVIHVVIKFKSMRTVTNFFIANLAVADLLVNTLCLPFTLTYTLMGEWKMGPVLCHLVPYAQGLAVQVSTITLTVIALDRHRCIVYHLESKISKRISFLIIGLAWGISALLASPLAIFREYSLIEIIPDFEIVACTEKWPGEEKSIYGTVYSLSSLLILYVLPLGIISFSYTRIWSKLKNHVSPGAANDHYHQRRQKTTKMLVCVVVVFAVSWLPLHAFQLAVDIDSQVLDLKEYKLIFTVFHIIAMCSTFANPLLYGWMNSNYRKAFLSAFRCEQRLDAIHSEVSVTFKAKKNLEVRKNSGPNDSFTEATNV
Method in brief: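 Intracellular cAMP quantified by luminescent competitive ELISA after a 30 min room-temperature treatment of overnight-plated HEK293/hNPY2R cells with compound in medium containing 5 μM forskolin, 0.5 mM IBMX and 1.1% DMSO; four replicates per concentration.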

hNPY2R [2] = target: T3, hNPY2R; test: CaFlux Assay (FLIPR), Y2R; set-up: expressed in transfected cells; host or cells: HEK-293 stably transfected with G protein chimera Gαqi9
Method in brief: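 Gαqi9-chimera HEK-293 stable lines; Calcium-3 dye load 1 h, 37 °C (HBSS, 20 mM HEPES, 5 mM probenecid); compound in HBSS/0.05% BSA/1% DMSO; FLIPR read every 1.5 s for 100 s; peak minus pre-addition baseline, % of max positive-control response.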

Sequence of Y4R (P50391 whole entry): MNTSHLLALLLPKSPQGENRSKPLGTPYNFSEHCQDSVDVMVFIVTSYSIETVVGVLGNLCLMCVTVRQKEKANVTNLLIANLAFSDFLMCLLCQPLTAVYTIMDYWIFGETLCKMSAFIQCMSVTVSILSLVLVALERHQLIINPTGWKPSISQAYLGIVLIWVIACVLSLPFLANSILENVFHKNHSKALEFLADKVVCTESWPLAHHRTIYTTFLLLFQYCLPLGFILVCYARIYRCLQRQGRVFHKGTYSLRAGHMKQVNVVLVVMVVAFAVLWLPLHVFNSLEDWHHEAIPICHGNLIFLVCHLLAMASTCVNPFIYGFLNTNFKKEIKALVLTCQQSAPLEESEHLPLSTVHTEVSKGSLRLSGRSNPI

Row | Structure (SMILES) | EC50 (Y1R) [nM] | EC50 (Y4R) [nM] | EC50 (Y5R) [nM] | Y5R FLIPR agonist character (partial agonist mark) (Y5R) | EC50 (hNPY2R [1]) [nM] | EC50 (hNPY2R [2]) [nM]
1 | CCCCCCCCCCCCCCCCCCCC(=O)N[C@@H](CCC(=O)N[C@@H](CCC(=O)NCCCC[C@H](NC(=O)[C@@H](NC(=O)CCOCCOCCOCCOCCOCCOCCOCCOCCOCCOCCOCCOCCOCCOCCOCCOC)[C@@H](C)CC)C(=O)N1CCN(c2ccc3ncn(CC(=O)N[C@@H](CCCNC(=N)N)C(=O)N[C@@H](Cc4c[nH]cn4)C(=O)N[C@@H](Cc4ccc(O)cc4)C(=O)N[C@@H](CC(C)C)C(=O)N[C@@H](CC(N)=O)C(=O)N[C@@H](Cc4c[nH]c5ccccc45)C(=O)N[C@H](C(=O)N[C@H](C(=O)N[C@@H](CCCNC(=N)N)C(=O)N[C@@H](CCC(N)=O)C(=O)N(C)[C@@H](CCCNC(=N)N)C(=O)N[C@@H](Cc4ccc(O)cc4)C(N)=O)[C@@H](C)O)C(C)C)c(=O)c3c2)CC1)C(=O)O)C(=O)O [Example 25] | > 9000 | > 9000 | 2580 | P.A | 0.09 | 0.14
2 | CCCCCCCCCCCCCCCCCCCC(=O)N[C@@H](CCC(=O)N[C@@H](CCC(=O)NCCCC[C@H](NC(=O)[C@@H](NC(=O)CCOCCOCCOCCOCCOCCOCCOCCOCCOCCOCCOCCOCCOCCOCCOCCOCCOCCOCCOCCOCCOCCOCCOCCOC)[C@@H](C)CC)C(=O)N1CCN(c2ccc3ncn(CC(=O)N[C@@H](CCCNC(=N)N)C(=O)N[C@@H](Cc4c[nH]cn4)C(=O)N[C@@H](Cc4ccc(O)cc4)C(=O)N[C@@H](CC(C)C)C(=O)N[C@@H](CC(N)=O)C(=O)N[C@@H](Cc4c[nH]c5ccccc45)C(=O)N[C@H](C(=O)N[C@H](C(=O)N[C@@H](CCCNC(=N)N)C(=O)N[C@@H](CCC(N)=O)C(=O)N(C)[C@@H](CCCNC(=N)N)C(=O)N[C@@H](Cc4ccc(O)cc4)C(N)=O)[C@@H](C)O)C(C)C)c(=O)c3c2)CC1)C(=O)O)C(=O)O [Example 26] | > 9000 | > 9000 | 1920 | P.A | 0.1 | 0.01
3 | CCCCCCCCCCCCCCCCCCCC(=O)N[C@@H](CCC(=O)O)C(=O)N[C@@H](CCC(=O)O)C(=O)N[C@H](C(=O)N[C@@H](CCCCNC(=O)CCOCCOCCOCCOCCOCCOCCOCCOCCOCCOCCOCCOC)C(=O)N1CCN(c2ccc3ncn(CC(=O)N[C@@H](CCCNC(N)=O)C(=O)N[C@@H](Cc4c[nH]cn4)C(=O)N[C@@H](Cc4ccc(O)cc4)C(=O)N[C@@H](CC(C)C)C(=O)N[C@@H](CC(N)=O)C(=O)N[C@@H](Cc4c[nH]c5ccccc45)C(=O)N[C@H](C(=O)N[C@H](C(=O)N[C@@H](CCCNC(=N)N)C(=O)N[C@@H](CCC(N)=O)C(=O)N(C)[C@@H](CCCNC(=N)N)C(=O)N[C@@H](Cc4ccc(O)cc4)C(N)=O)[C@@H](C)O)C(C)C)c(=O)c3c2)CC1)[C@@H](C)CC [Example 45] | > 6000 | > 6000 | > 6000 | – | 0.3 | 0.158
4 | CCCCCCCCCCCCCCCCCCCC(=O)N[C@@H](CCC(=O)O)C(=O)N[C@@H](CCC(=O)O)C(=O)N[C@@H](C(=O)N[C@@H](CCCCNC(=O)CCOCCOCCOCCOCCOCCOCCOCCOCCOCCOCCOCCOCCOCCOCCOCCOCCOCCOCCOCCOCCOCCOCCOCCOC)C(=O)N1CCN(c2ccc3ncn(CC(=O)N[C@@H](CCCNC(=N)N)C(=O)N[C@@H](Cc4c[nH]cn4)C(=O)N[C@@H](Cc4ccc(O)cc4)C(=O)N[C@@H](CC(C)C)C(=O)N[C@@H](CC(N)=O)C(=O)N[C@@H](Cc4c[nH]c5ccccc45)C(=O)N[C@H](C(=O)N[C@H](C(=O)N[C@@H](CCCNC(=N)N)C(=O)N[C@@H](CCC(N)=O)C(=O)N(C)[C@@H](CCCNC(=N)N)C(=O)N[C@@H](Cc4ccc(O)cc4)C(N)=O)[C@@H](C)O)C(C)C)c(=O)c3c2)CC1)[C@@H](C)CC [Example 53] | > 6000 | > 6000 | > 6000 | – | 0.56 | 0.66
5 | CCCCCCCCCCCCCCCC(=O)NCCOCCNC(=O)CCC(=O)NCCCC[C@H](NC(=O)[C@@H](NC(=O)CCOCCOCCOCCOCCOCCOCCOCCOCCOCCOCCOCCOCCOCCOCCOCCOCCOCCOCCOCCOCCOCCOCCOCCOC)[C@@H](C)CC)C(=O)N1CCN(c2ccc3ncn(CC(=O)N[C@@H](CCCNC(=N)N)C(=O)N[C@@H](Cc4c[nH]cn4)C(=O)N[C@@H](Cc4ccc(O)cc4)C(=O)N[C@@H](CC(C)C)C(=O)N[C@@H](CC(N)=O)C(=O)N[C@@H](Cc4c[nH]c5ccccc45)C(=O)N[C@H](C(=O)N[C@H](C(=O)N[C@@H](CCCNC(=N)N)C(=O)N[C@@H](CCC(N)=O)C(=O)N(C)[C@@H](CCCNC(=N)N)C(=O)N[C@@H](Cc4ccc(O)cc4)C(N)=O)[C@@H](C)O)C(C)C)c(=O)c3c2)CC1 [Example 15] | > 5000 | > 5000 | 248 | P.A | 0.06 | 0.084
6 | CCCCCCCCCCCCCCCC(=O)NCCCCCC(=O)N[C@H](C(=O)N[C@@H](CCCCNC(=O)CCOCCOCCOCCOCCOCCOCCOCCOC)C(=O)N1CCN(c2ccc3ncn(CC(=O)N[C@@H](CCCNC(N)=O)C(=O)N[C@@H](Cc4c[nH]cn4)C(=O)N[C@@H](Cc4ccc(O)cc4)C(=O)N[C@@H](CC(C)C)C(=O)N[C@@H](CC(N)=O)C(=O)N[C@@H](Cc4c[nH]c5ccccc45)C(=O)N[C@H](C(=O)N[C@H](C(=O)N[C@@H](CCCNC(=N)N)C(=O)N[C@@H](CCC(N)=O)C(=O)N(C)[C@@H](CCCNC(=N)N)C(=O)N[C@@H](Cc4ccc(O)cc4)C(N)=O)[C@@H](C)O)C(C)C)c(=O)c3c2)CC1)[C@@H](C)CC [Example 30] | > 6000 | > 6000 | 5690 | – | 0.47 | 0.143
7 | CCCCCCCCCCCCCCCCCCCC(=O)N[C@@H](CCC(=O)N[C@@H](CCC(=O)N[C@H](C(=O)N[C@@H](CCCCNC(=O)CCOCCOCCOCCOCCOCCOCCOCCOCCOCCOCCOCCOCCOCCOCCOCCOCCOCCOCCOCCOCCOCCOCCOCCOC)C(=O)N1CCN(c2ccc3ncn(CC(=O)N[C@@H](CCCNC(=N)N)C(=O)N[C@@H](Cc4c[nH]cn4)C(=O)N[C@@H](Cc4ccc(O)cc4)C(=O)N[C@@H](CC(C)C)C(=O)N[C@@H](CC(N)=O)C(=O)N[C@@H](Cc4c[nH]c5ccccc45)C(=O)N[C@H](C(=O)N[C@H](C(=O)N[C@@H](CCCNC(=N)N)C(=O)N[C@@H](CCC(N)=O)C(=O)N(C)[C@@H](CCCNC(=N)N)C(=O)N[C@@H](Cc4ccc(O)cc4)C(N)=O)[C@@H](C)O)C(C)C)c(=O)c3c2)CC1)[C@@H](C)CC)C(=O)O)C(=O)O [Example 60] | > 9000 | > 9000 | 2600 | – | 0.29 | 0.18
8 | CCCCCCCCCCCCCCCCCCCC(=O)NCCCCCC(=O)N[C@H](C(=O)N[C@@H](CCCCNC(=O)CCOCCOCCOCCOCCOCCOCCOCCOCCOCCOCCOCCOCCOCCOCCOCCOCCOCCOCCOCCOCCOCCOCCOCCOC)C(=O)N1CCN(c2ccc3ncn(CC(=O)N[C@@H](CCCNC(N)=O)C(=O)N[C@@H](Cc4c[nH]cn4)C(=O)N[C@@H](Cc4ccc(O)cc4)C(=O)N[C@@H](CC(C)C)C(=O)N[C@@H](CC(N)=O)C(=O)N[C@@H](Cc4c[nH]c5ccccc45)C(=O)N[C@H](C(=O)N[C@H](C(=O)N[C@@H](CCCNC(=N)N)C(=O)N[C@@H](CCC(N)=O)C(=O)N(C)[C@@H](CCCNC(=N)N)C(=O)N[C@@H](Cc4ccc(O)cc4)C(N)=O)[C@@H](C)O)C(C)C)c(=O)c3c2)CC1)[C@@H](C)CC [Example 33] | > 6000 | > 6000 | 4290 | – | 0.13 | 0.127
